Data taken from the supplement of paper PMC13380429.
± gives the standard deviation of the averaged measurements.

What was measured:
Conditions in all cases: 72 h
[1] = tested on: Vero E6; assay: cell viability relative to DMSO; higher = less toxic
[2] = tested on: HepG2; assay: as above
[3] = tested on: Caco-2; assay: as above
[4] = tested on: U2OS; assay: as above
[5] = tested on: Calu-3; assay: as above
[6] = tested on: Vero E6; assay: relative viability EC50 (midpoint between 100% and the lowest measured viability); higher = less toxic
[7] = tested on: HepG2; assay: as above
[8] = tested on: Caco-2; assay: as above
[9] = tested on: U2OS; assay: as above
[10] = tested on: Calu-3; assay: as above
[11] = tested on: Vero E6; assay: drug sensitivity score (DSS) for viability; higher = more toxic; extreme values may be limits of the assay
[12] = tested on: HepG2; assay: as above
[13] = tested on: Caco-2; assay: as above
[14] = tested on: U2OS; assay: as above
[15] = tested on: Calu-3; assay: as above

| SMILES | cell viability ([1]; 1 nM) | cell viability ([1]; 10 nM) | cell viability ([1]; 100 nM) | cell viability ([1]; 1000 nM) | cell viability ([1]; 10000 nM) | cell viability ([2]; 1 nM) | cell viability ([2]; 10 nM) | cell viability ([2]; 100 nM) | cell viability ([2]; 1000 nM) | cell viability ([2]; 10000 nM) | cell viability ([3]; 1 nM) | cell viability ([3]; 10 nM) | cell viability ([3]; 100 nM) | cell viability ([3]; 1000 nM) | cell viability ([3]; 10000 nM) | cell viability ([4]; 1 nM) | cell viability ([4]; 10 nM) | cell viability ([4]; 100 nM) | cell viability ([4]; 1000 nM) | cell viability ([4]; 10000 nM) | cell viability ([5]; 1 nM) | cell viability ([5]; 10 nM) | cell viability ([5]; 100 nM) | cell viability ([5]; 1000 nM) | cell viability ([5]; 10000 nM) | relative viability EC50 [6] | relative viability EC50 [7] | relative viability EC50 [8] | relative viability EC50 [9] | relative viability EC50 [10] | drug sensitivity score [11] | drug sensitivity score [12] | drug sensitivity score [13] | drug sensitivity score [14] | drug sensitivity score [15] |
| --- | --- | --- | --- | --- | --- | --- | --- | --- | --- | --- | --- | --- | --- | --- | --- | --- | --- | --- | --- | --- | --- | --- | --- | --- | --- | --- | --- | --- | --- | --- | --- | --- | --- | --- | --- |
| CCOc1ccc(-n2c([C@@H](C)N(Cc3cccnc3)C(=O)Cc3ccc(OC(F)(F)F)cc3)nc3ncccc3c2=O)cc1 (racemic) [AMG-487-(+/-)] | 97.8 ± 3.2% | 102 ± 3.9% | 101 ± 2.5% | 97.8 ± 0.57% | 102 ± 2.5% | 99.7 ± 1.1% | 98 ± 11% | 97.5 ± 8.5% | 95.2 ± 4.5% | 94 ± 13% | 94 ± 2.5% | 98.2 ± 13% | 98.5 ± 2% | 101 ± 6% | 94.5 ± 8.4% | 100.5 ± 0.35% | 101 ± 4% | 97.3 ± 1.7% | 98.6 ± 0.85% | 99.6 ± 1.7% | 100.8 ± 0.57% | 99.7 ± 0.99% | 93.3 ± 2.7% | 92.1 ± 3.4% | 98.5 ± 6% | > 10 µM | > 10 µM | > 10 µM | > 10 µM | > 10 µM | 0 | 0.45 ± 0.64 | 0 | 0 | 0.05 ± 0.071 |
| O=c1[nH]c(=O)n([C@H]2CCCO2)cc1F (racemic) [ftorafur] | 96.1% | 103% | 91.2% | 102% | 108% | 87.2% | 111% | 91.5% | 110% | 113% | 93.5% | 103% | 106% | 90.7% | 100% | 99% | 95.9% | 102% | 98.1% | 105% | 96.5% | 95.2% | 93.9% | 94.4% | 99.2% | > 10 µM | > 10 µM | > 10 µM | > 10 µM | > 10 µM | 0 | 0 | 0 | 0 | 0 |
| CC1(C)[C@@H]2C[C@@H](O)[C@@](C)(O)[C@H]1C2 [2,3-cis/exo-pinanediol] | 100% | 99.9% | 99.3% | 93.1% | 100% | 100% | 110% | 104% | 93.9% | 108% | 103% | 101% | 97.2% | 108% | 87.2% | 96.1% | 97.3% | 95.7% | 100% | 97.3% | 106% | 98.1% | 102% | 106% | 103% | > 10 µM | > 10 µM | > 10 µM | > 10 µM | > 10 µM | 0 | 0 | 0 | 0 | 0 |
| Nc1ccccc1S(N)(=O)=O [2-aminobenzenesulfonamide] | 99.5% | 98.2% | 101% | 98.9% | 93.7% | 99% | 99.5% | 87.1% | 94.1% | 102% | 95.3% | 99.4% | 99.4% | 95.5% | 101% | 103% | 105% | 96.8% | 98.4% | 90.5% | 90.9% | 108% | 101% | 104% | 80.5% | > 10 µM | > 10 µM | > 10 µM | > 10 µM | > 10 µM | 0 | 0 | 0 | 0 | 0.4 |
| NC(=O)c1cccc(N)c1 [3-amino-benzamide] | 95.7% | 102% | 102% | 102% | 103% | 104% | 81.8% | 107% | 101% | 99.8% | 98.4% | 96.2% | 93.3% | 89% | 96.8% | 99.8% | 106% | 98.3% | 104% | 98.9% | 106% | 111% | 102% | 103% | 97.2% | > 10 µM | > 10 µM | > 10 µM | > 10 µM | > 10 µM | 0 | 0 | 0 | 0 | 0 |
| C[C@@H](CN)CC(=O)O [3-methyl-GABA] | 100% | 94.2% | 103% | 92.8% | 101% | 96.1% | 90.5% | 100% | 92.4% | 99% | 85.9% | 94.9% | 84.6% | 101% | 88.8% | 102% | 101% | 99.3% | 103% | 94.5% | 95.5% | 104% | 93.4% | 98.3% | 90.9% | > 10 µM | > 10 µM | > 10 µM | > 10 µM | > 10 µM | 0 | 0 | 0.1 | 0 | 0 |
| O=C(O)C(Cc1ccccc1[N+](=O)[O-])=NNc1nc(-c2ccc(Cl)c(Cl)c2)cs1 [4EGI-1] | 97.9% | 95.3% | 96.7% | 92% | 100% | 101% | 104% | 102% | 91.6% | 45.5% | 87.1% | 103% | 98.1% | 112% | 84.8% | 94.5% | 96.7% | 93.8% | 93.7% | 93.1% | 98.1% | 100% | 97.7% | 104% | 96.7% | > 10 µM | 1.96 µM | > 10 µM | > 10 µM | > 10 µM | 0 | 4.3 | 0.1 | 0 | 0 |
| O=[N+]([O-])c1cccc2cn[nH]c12 [7-nitroindazole] | 103% | 96.5% | 99.6% | 98.7% | 98.7% | 102% | 96.3% | 88.2% | 99.2% | 98.1% | 100% | 94.4% | 97.1% | 106% | 97.8% | 99.7% | 102% | 99.8% | 104% | 97.9% | 102% | 101% | 99.4% | 97.6% | 93.4% | > 10 µM | > 10 µM | > 10 µM | > 10 µM | > 10 µM | 0 | 0 | 0 | 0 | 0 |
| Nc1ncnc2c1nc(Br)n2[C@@H]1O[C@@H]2COP(=O)(O)O[C@H]2[C@H]1O [8-bromo-cAMP] | 100% | 102% | 103% | 102% | 96% | 95.2% | 96.5% | 93.1% | 98.2% | 85.7% | 106% | 95.8% | 97.8% | 98.5% | 81.5% | 102% | 96.8% | 105% | 99% | 102% | 92.8% | 104% | 95.9% | 103% | 95.8% | > 10 µM | > 10 µM | > 10 µM | > 10 µM | > 10 µM | 0 | 0 | 0.7 | 0 | 0 |
| Cc1c(C(=O)NN2CCOCC2)nn(-c2ccc(Cl)cc2Cl)c1-c1ccc(I)cc1 [AM-281] | 98.3% | 96.6% | 98.4% | 94.5% | 106% | 105% | 95.7% | 102% | 101% | 103% | 96.8% | 100% | 96.2% | 96.2% | 107% | 96.9% | 101% | 95.5% | 100% | 100% | 102% | 113% | 104% | 94.5% | 88.1% | > 10 µM | > 10 µM | > 10 µM | > 10 µM | > 10 µM | 0 | 0 | 0 | 0 | 0.2 |
| C[C@H]1CC[C@H](n2c3cnccc3c3cnc(Nc4ccc5c(n4)CCN(C(=O)CO)C5)nc32)CC1 [AMG-925] | 99.6% | 92.8% | 96.1% | 95.9% | 104% | 105% | 90.3% | 113% | 100% | 101% | 112% | 95.5% | 96.4% | 95.3% | 91.3% | 98.8% | 100% | 97.1% | 99.4% | 96.7% | 95.1% | 109% | 100% | 109% | 93% | > 10 µM | > 10 µM | > 10 µM | > 10 µM | > 10 µM | 0 | 0 | 0 | 0 | 0 |
| Cc1ccc(S(=O)(=O)NCc2ccccc2)cc1 [BTS] | 104% | 101% | 91.7% | 95.9% | 93.4% | 102% | 110% | 95.3% | 110% | 107% | 95.1% | 99.3% | 101% | 90% | 99.9% | 96.7% | 97.4% | 107% | 98% | 102% | 98.1% | 100% | 106% | 102% | 112% | > 10 µM | > 10 µM | > 10 µM | > 10 µM | > 10 µM | 0 | 0 | 0 | 0 | 0 |
